Assay results as given in ChEMBL document CHEMBL3745676, “Alkylamino derivatives of N-benzylpyrazine-2-carboxamide: synthesis and antimycobacterial evaluation” (Medchemcomm, 2015).

What was measured:
Format in all cases: functional
[1] = test system: Mycobacterium tuberculosis; test: Antimycobacterial activity against multi-drug resistant Mycobacterium tuberculosis 7357/1998 after 14 days by microplate dilution method; conditions: 7357/1998, 336 h
[2] = test system: Mycobacterium tuberculosis; test: Antimycobacterial activity against multi-drug resistant Mycobacterium tuberculosis 7357/1998 after 21 days by microplate dilution method; conditions: 7357/1998, 504 h
[3] = test system: Mycobacterium tuberculosis; test: Antimycobacterial activity against multi-drug resistant Mycobacterium tuberculosis 234/2005 after 14 days by microplate dilution method; conditions: 234/2005, 336 h
[4] = test system: Mycobacterium tuberculosis; test: Antimycobacterial activity against multi-drug resistant Mycobacterium tuberculosis 234/2005 after 21 days by microplate dilution method; conditions: 234/2005, 504 h
[5] = test system: Mycobacterium tuberculosis; test: Antimycobacterial activity against multi-drug resistant Mycobacterium tuberculosis 9449/2007 after 14 days by microplate dilution method; conditions: 9449/2007, 336 h
[6] = test system: Mycobacterium tuberculosis; test: Antimycobacterial activity against multi-drug resistant Mycobacterium tuberculosis 9449/2007 after 21 days by microplate dilution method; conditions: 9449/2007, 504 h
[7] = test system: Mycobacterium tuberculosis; test: Antimycobacterial activity against multi-drug resistant Mycobacterium tuberculosis 8666/2010 after 14 days by microplate dilution method; conditions: 8666/2010, 336 h
[8] = test system: Mycobacterium tuberculosis; test: Antimycobacterial activity against multi-drug resistant Mycobacterium tuberculosis 8666/2010 after 21 days by microplate dilution method; conditions: 8666/2010, 504 h
[9] = test system: Mycobacterium tuberculosis; test: Antimycobacterial activity against multi-drug resistant Mycobacterium tuberculosis Praha 1 after 14 days by microplate dilution method; conditions: Praha 1, 336 h
[10] = test system: Mycobacterium tuberculosis; test: Antimycobacterial activity against multi-drug resistant Mycobacterium tuberculosis Praha 1 after 21 days by microplate dilution method; conditions: Praha 1, 504 h
[11] = test system: Mycobacterium tuberculosis; test: Antimycobacterial activity against multi-drug resistant Mycobacterium tuberculosis Praha 4 after 14 days by microplate dilution method; conditions: Praha 4, 336 h
[12] = test system: Mycobacterium tuberculosis; test: Antimycobacterial activity against multi-drug resistant Mycobacterium tuberculosis Praha 4 after 21 days by microplate dilution method; conditions: Praha 4, 504 h
[13] = test system: Mycobacterium tuberculosis; test: Antimycobacterial activity against multi-drug resistant Mycobacterium tuberculosis Praha 131 after 14 days by microplate dilution method; conditions: Praha 131, 336 h
[14] = test system: Mycobacterium tuberculosis; test: Antimycobacterial activity against multi-drug resistant Mycobacterium tuberculosis Praha 131 after 21 days by microplate dilution method; conditions: Praha 131, 504 h

Measured: MIC

CCCCCCCCNc1cnc(C(=O)NCc2ccccc2)cn1
4 µM: [3] | [7] | [9] | [13] | [14]
8 µM: all other assays above

CCCCCNc1nccnc1C(=O)NCc1ccccc1
1000 µM: [1] | [3] | [5] | [7] | [9] | [11] | [13]
> 1000 µM: all other assays above

CCCCNc1cnc(C(=O)NCc2ccccc2)cn1
250 µM: [4] | [8] | [10]
62.5 µM: [5] | [11] | [13]
125 µM: all other assays above

CCCCCCCNc1nccnc1C(=O)NCc1ccccc1
1000 µM: [1] | [2] | [3] | [7] | [9] | [13]
> 1000 µM: all other assays above

CCCCCNc1cncc(C(=O)NCc2ccccc2)n1
32 µM: [1] | [5] | [11] | [13]
62.5 µM: all other assays above

CCCCCCCNc1cncc(C(=O)NCc2ccccc2)n1
8 µM: [11] | [13]
16 µM: all other assays above

CCCCNc1nccnc1C(=O)NCc1ccccc1
250 µM: [2] | [4] | [6] | [8] | [14]
125 µM: all other assays above

NNC(=O)c1ccncc1 [ISONIAZID]
32 µM: [2] | [8]
16 µM: all other assays above

CCCCNc1cncc(C(=O)NCc2ccccc2)n1
125 µM: [6]
32 µM: [11] | [13]
62.5 µM: all other assays above

CCCCCCCCNc1nccnc1C(=O)NCc1ccccc1
> 1000 µM: all assays above

CCCCCCNc1nccnc1C(=O)NCc1ccccc1
> 1000 µM: [2] | [4] | [8] | [10] | [12] | [14]
1000 µM: all other assays above

CCCCCNc1cnc(C(=O)NCc2ccccc2)cn1
32 µM: [2] | [4] | [6] | [8] | [10] | [12]
16 µM: all other assays above

CCCCCCNc1cncc(C(=O)NCc2ccccc2)n1
16 µM: [3] | [7] | [9] | [13]
32 µM: all other assays above

CCCCCCCNc1cnc(C(=O)NCc2ccccc2)cn1
8 µM: [2] | [6] | [12]
2 µM: [13]
4 µM: all other assays above

CCCCCCCCNc1cncc(C(=O)NCc2ccccc2)n1
16 µM: all assays above

CCCCCCNc1cnc(C(=O)NCc2ccccc2)cn1
4 µM: [3] | [7] | [9] | [13] | [14]
8 µM: all other assays above
